Earlier results as cited in PMC3819103 (Magnetic resonance in medicine : official journal of the …, 2010).

System: blood-brain barrier

Substance: β-Ala(Mys)-Arg-Arg-Arg-Arg-Arg-Arg-Arg-Cys-NH2 [MPAP]
- Ability to cross the blood-brain barrier and localization: could cross the blood-brain barrier, followed by localization to the cytoplasm
- Delivery of a near-infrared dye across the blood-brain barrier (earlier studies): can deliver a near-infrared dye across the blood-brain barrier
